Source: ChEMBL document CHEMBL4428132, “Application of Fragment-Based de Novo Design to the Discovery of Selective Picomolar Inhibitors of Glycogen Synthase Kinase-3 Beta” (J Med Chem, 2016)

Experiments:
[1] = molecular target: T1, Glycogen synthase kinase-3 beta (Homo sapiens, UniProt P49841); assay: Inhibition of His-tagged full length human recombinant GSK3beta using [YRRAAVPPSPSLSRHSSPHQ-(pS)EDEEE] substrate and pre-incubarted for 20 mins before [gamma-33P]ATP addition and measured after 2 hrs by radiometric kinase assay
Target sequence in this assay (P49841 whole entry): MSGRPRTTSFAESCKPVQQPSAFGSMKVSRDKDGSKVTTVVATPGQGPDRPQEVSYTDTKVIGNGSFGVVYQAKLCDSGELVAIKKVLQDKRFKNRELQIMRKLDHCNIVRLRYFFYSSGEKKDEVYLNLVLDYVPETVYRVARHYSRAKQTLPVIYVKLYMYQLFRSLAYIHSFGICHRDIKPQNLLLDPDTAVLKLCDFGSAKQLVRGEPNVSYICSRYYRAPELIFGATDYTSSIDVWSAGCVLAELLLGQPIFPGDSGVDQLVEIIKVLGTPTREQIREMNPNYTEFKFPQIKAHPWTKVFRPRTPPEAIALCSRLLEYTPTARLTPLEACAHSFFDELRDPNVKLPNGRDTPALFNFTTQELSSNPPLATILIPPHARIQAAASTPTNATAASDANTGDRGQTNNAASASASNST

SK-BR-3 = assay: Antiproliferative activity against human SKBR3 cells by MTT assay; format: functional, cell-based
MDA-MB-231 = assay: Antiproliferative activity against human MDA231 cells by MTT assay; format: functional, cell-based
MCF7 = assay: Antiproliferative activity against human MCF7 cells by MTT assay; format: functional, cell-based
[2] = molecular target: Cyclin-dependent kinase 2 (Homo sapiens) (UniProt P24941); assay: Inhibition of CDK2 (unknown origin) assessed as remaining enzyme activity at 1 uM
[3] = molecular target: T1, Glycogen synthase kinase-3 beta; assay: Inhibition of GSK3beta (unknown origin) assessed as remaining enzyme activity at 1 uM
Target sequence in this assay (P49841 whole entry, looked up): as the sequence (P49841 whole entry) above

[4] = molecular target: Aurora kinase B (Homo sapiens) (UniProt Q96GD4); assay: Inhibition of Aurora kinase B (unknown origin) assessed as remaining enzyme activity at 1 uM
Chain of Aurora kinase B (Homo sapiens) (Q96GD4 whole entry): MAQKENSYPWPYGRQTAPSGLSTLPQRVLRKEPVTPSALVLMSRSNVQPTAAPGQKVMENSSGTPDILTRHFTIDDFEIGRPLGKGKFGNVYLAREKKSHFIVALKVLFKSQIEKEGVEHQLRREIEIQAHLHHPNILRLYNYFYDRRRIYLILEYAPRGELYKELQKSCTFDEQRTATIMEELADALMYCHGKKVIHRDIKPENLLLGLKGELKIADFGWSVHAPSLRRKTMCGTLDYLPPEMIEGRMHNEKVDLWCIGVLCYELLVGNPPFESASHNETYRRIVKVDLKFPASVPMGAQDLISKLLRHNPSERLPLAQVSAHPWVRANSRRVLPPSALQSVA

Compound	IC50 [1] [nM]	further results
O=C(/C=C/c1cnc2[nH]cc(-c3ccccc3)c2c1)NCc1nc2ccccc2[nH]1	62.1	–
O=C(/C=C/c1cnc2[nH]cc(-c3ccccc3)c2c1)NCCN1CCOCC1	45.7	–
O=C(CNC(=O)c1ccc2[nH]cc(-c3ccncc3)c2c1)NCCc1c[nH]c2ccccc12	33800	–
O=C(/C=C/c1cnc2[nH]cc(-c3ccccc3)c2c1)NCc1ccncc1	3.59	–
O=C(/C=C/c1cnc2[nH]cc(-c3ccccc3)c2c1)NCc1cccnc1	64.2	–
O=C(/C=C/c1cnc2[nH]cc(-c3ccccc3)c2c1)NCCc1c[nH]c2ccccc12	356	–
O=C(/C=C/c1cnc2[nH]cc(-c3ccccc3)c2c1)NCCc1ccccc1	248	–
O=C(/C=C/c1cnc2[nH]cc(-c3ccccc3)c2c1)NCc1ccco1	77.1	–
O=C(CCc1cnc2[nH]cc(-c3ccccc3)c2c1)NCCc1c[nH]c2ccccc12	1030	–
O=C(/C=C/c1cnc2[nH]cc(-c3ccncc3)c2c1)NCc1ccncc1	2.75	–
CS(=O)(=O)c1ccc(-c2c[nH]c3ncc(/C=C/C(=O)NCc4ccncc4)cc23)cc1	220	–
O=C(/C=C/c1cnc2[nH]cc(-c3ccccc3)c2c1)NCCc1ccncc1	43.5	–
O=C(C/C=C/c1cnc2[nH]cc(-c3ccccc3)c2c1)NCCc1ccccc1	> 50000	–
N#Cc1ccc(-c2c[nH]c3ncc(/C=C/C(=O)NCc4ccncc4)cc23)cc1	63.1	–
O=C(/C=C/c1cnc2[nH]cc(-c3cccnc3)c2c1)NCc1ccncc1	16.5	–
O=C(C/C=C/c1cnc2[nH]cc(-c3ccccc3)c2c1)NCCc1c[nH]c2ccccc12	3760	–
O=C(/C=C/c1cnc2[nH]cc(-c3ccccc3)c2c1)NCCc1c[nH]c2ncccc12	128	–
CC(=O)c1ccc(-c2c[nH]c3ncc(/C=C/C(=O)NCc4ccncc4)cc23)cc1	1.42	–
O=C(/C=C/c1cnc2[nH]cc(-c3ccccc3)c2c1)NCc1ccccn1	167	–
O=C(CNC(=O)c1ccc2noc(-c3ccccc3)c2c1)NCCc1c[nH]c2ccccc12	> 50000	–
O=C(/C=C/c1cnc2[nH]cc(-c3ccccc3)c2c1)NCc1ccc2[nH]ccc2c1	462	–
O=C(CNC(=O)c1cnc2[nH]cc(-c3ccccc3)c2c1)NCCc1c[nH]c2ccccc12	1450	–
O=C(/C=C/c1cnc2[nH]cc(-c3ccc(F)cc3)c2c1)NCc1ccncc1	22.8	–
O=C(/C=C/c1cnc2[nH]cc(-c3ccccc3)c2c1)NCc1ccc2c(c1)CCO2	103	–
COc1ccc(-c2c[nH]c3ncc(/C=C/C(=O)NCc4ccncc4)cc23)cc1	0.508	IC50 (SK-BR-3): > 10 µM; IC50 (MDA-MB-231): > 10 µM; IC50 (MCF7): > 10 µM; Activity [2]: 97%; Activity [3]: 1.2%
CC(=O)c1ccc(-c2c[nH]c3ncc(/C=C/C(=O)NCCc4ccccn4)cc23)cc1	1.37	IC50 (SK-BR-3): > 10 µM; Activity [4]: 23%; IC50 (MDA-MB-231): > 10 µM; IC50 (MCF7): > 10 µM; Activity [2]: 85%; Activity [3]: 3.4%
O=C(CNC(=O)c1cnc2[nH]cc(-c3ccncc3)c2c1)NCCc1c[nH]c2ccccc12	994	–
NC(=O)c1ccc(-c2c[nH]c3ncc(/C=C/C(=O)NCc4ccncc4)cc23)cc1	4.43	–
